Experimental data: paper PMC4749533, “Scintillation proximity assay (SPA) as a new approach to determine a ligand’s kinetic profile. A case in point for the adenosine A1 receptor” (Purinergic Signalling, 2015)

Experiments:
Type in all cases: binding
[1] = biological target: T1, human adenosine A1 receptor (hA1R) (Homo sapiens, UniProt P30542); test: Competition association with [3H]-DPCPX, SPA technology; conditions: 28 °C, 1 mM GTP present for LUF5834, CCPA, NECA; for SPA RT: 1/k off
T1 construct: Steve Hill (University of Nottingham, UK); host or cells: CHO cells stably expressing hA1R; membrane preparation
T1 sequence (P30542 1-326): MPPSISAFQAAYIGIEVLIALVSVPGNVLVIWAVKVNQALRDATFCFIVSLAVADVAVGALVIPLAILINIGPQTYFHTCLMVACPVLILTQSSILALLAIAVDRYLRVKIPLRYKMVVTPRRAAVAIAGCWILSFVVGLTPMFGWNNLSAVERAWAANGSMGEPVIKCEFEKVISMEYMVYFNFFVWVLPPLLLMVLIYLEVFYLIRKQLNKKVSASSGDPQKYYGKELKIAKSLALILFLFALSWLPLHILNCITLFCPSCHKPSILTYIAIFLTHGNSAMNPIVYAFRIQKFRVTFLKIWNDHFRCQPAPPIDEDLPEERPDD
Method: (§1) The binding kinetics of unlabeled ligands was quantified using the competition association assay based on the theoretical framework by Motulsky and Mahan.
The membrane-bead mixture was prepared as described under “Radioligand displacement experiments.” Once the membrane-bead mixture was added to the wells of an Isoplate-96 Microplate, measurements of radioligand bound to the receptor were started immediately and continued every 30 s for 2 h, using the 2450 MicroBeta^2 Plate Counter.

[2] = biological target: T1, human adenosine A1 receptor (hA1R); test: Competition association with [3H]-DPCPX, filtration assay; conditions: 28 °C, 1 mM GTP present for LUF5834, CCPA, NECA; for Filtration assay RT: 1/k off
Method: as §1
The competition association assay was initiated by adding membrane aliquots (5 μg per well) at different time points for a total of 2 h in the absence or presence of competing ligand.

[3] = biological target: T1, human adenosine A1 receptor (hA1R); test: Radioligand displacement of [3H]-DPCPX, filtration assay; conditions: CHO-hA1R membranes, one-state model
Method: (§2) Non-specific binding (NSB) was determined in the presence of 100 μM CPA. Each condition was measured in duplicate, and at least three individual experiments were performed.
Membrane aliquots containing 5 μg protein were incubated together with the radioligand and competing ligands in a total volume of 100 μL assay buffer in a 96-well plate. After 1 h incubation at room temperature, the incubation was terminated by rapid vacuum filtration to separate the bound and free radioligand through 96-well GF/B filter plates using a PerkinElmer Filtermate-harvester (Perkin Elmer, Groningen, the Netherlands). Filters were subsequently washed three times with ice-cold wash buffer (50 mM Tris-HCl [pH 7.4], supplemented with 5 mM MgCl2). After 30 min of dehydration of the filter plate at 50 °C, the filter-bound radioactivity was determined by scintillation spectrometry using the 2450 MicroBeta^2 Plate Counter. The binding values were recorded in both counts per minute (CPM) and disintegrations per minute (DPM).

[4] = biological target: T1, human adenosine A1 receptor (hA1R); test: Radioligand displacement of [3H]-DPCPX, SPA technology; conditions: CHO-hA1R membranes, one-state model
Method: as §2
A mixture of 5 μg protein membrane and 1 mg SPA bead was pre-coupled in a shaker (Vibrax VXR, IKA) in a volume of 50 μL of assay buffer at room temperature for 30 min. Then, together with the radioligand and competing ligands, the membrane-bead mixture was dispatched in an Isoplate-96 Microplate (Perkin Elmer, Groningen, the Netherlands), in a final reaction volume of 100 μL. The plate was incubated for 1 h inside the counting chamber of a 2450 MicroBeta^2 Plate Counter (Perkin Elmer, Groningen, the Netherlands) at the ambient temperature of 28 °C. The binding values were recorded in corrected counts per minute (CCPM).

SPA RT [1] [min]	Filtration assay RT [2] [min]	Ki [3] [nM]	Ki [4] [nM]	SPA k off (k4) ([1]; […] [3H]-DPCPX) [s⁻¹]	SPA k on (k3) ([1]; […] [3H]-DPCPX) [M⁻¹ s⁻¹]	Kd ([1]; k off/k on, read-out: SPA Kinetic K D) [nM]	Filtration assay k off (k4) ([2]; […] [3H]-DPCPX) [s⁻¹]	Filtration assay k on (k3) ([2]; […] [3H]-DPCPX) [M⁻¹ s⁻¹]	Kd ([2]; k off/k on, read-out: Filtration assay Kinetic K D) [nM]	SMILES
2.0 ± 0.1	3.7 ± 0.4									CCCn1c(=O)c2[nH]c(C3CCCC3)nc2n(CCC)c1=O [DPCPX, 1,3-Dipropyl-8-cyclopentyl-xanthine]
2.0 ± 0.1	4.4 ± 0.5	4.3 ± 0.6	6.2 ± 0.5	0.00833 ± 0.00083	2.17e+06 ± 830000	3.9 ± 1.5	0.00383 ± 0.0005	1.03e+06 ± 100000	3.7 ± 0.5	N#Cc1c(N)nc(SCc2ncc[nH]2)c(C#N)c1-c1ccc(O)cc1 [LUF5834]
1.4 ± 0.1	0.68 ± 0.01									OC[C@H]1O[C@@H](n2cnc3c(NC4CCCC4)nc(Cl)nc32)[C@H](O)[C@@H]1O [CCPA, 2-chloro-N^6-cyclopentyladenosine]

SMILES	SPA RT [1] [min]	Filtration assay RT [2] [min]	Ki [3] [nM]	Ki [4] [nM]	SPA k off (k4) ([1]; […] [3H]-DPCPX) [s⁻¹]	SPA k on (k3) ([1]; […] [3H]-DPCPX) [M⁻¹ s⁻¹]	Kd ([1]; k off/k on, read-out: SPA Kinetic K D) [nM]	Filtration assay k off (k4) ([2]; […] [3H]-DPCPX) [s⁻¹]	Filtration assay k on (k3) ([2]; […] [3H]-DPCPX) [M⁻¹ s⁻¹]	Kd ([2]; k off/k on, read-out: Filtration assay Kinetic K D) [nM]
CCCn1c(=O)c2[nH]c(C3CCCC3)nc2n(CCCOC(=O)c2ccc(S(=O)(=O)F)cc2)c1=O [FSCPX, 8-cyclopentyl-3-N-[3-((3-(4-fluorosulphonyl)benzoyl)-oxy)-propyl]-1-N-propyl-xanthine]	156 ± 31	167 ± 56								
